Values after ≈ are worked out from the molar mass of the structure shown.
What follows are compounds tested on Aspergillus fumigatus (RCMB 02568) (assay: Well diffusion assay (inhibition zone)). Settings: RCMB02568, 5 mg/mL in DMSO, fungi, read-out: Inhibition Zone (IZ) diameter, A.F.
Assay type: cell-based
In short: (§1)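 Agar well diffusion with 10 mm wells, nutrient agar for bacteria and malt extract agar for fungi. Plates were incubated 24-48 h at 37 °C for bacteria or 28 °C for fungi. Inhibition zone diameters were measured in mm, in triplicate.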

Row | Structure (SMILES) | zone of inhibition at 5000 µg/mL
1 | N#CC1=C(N)Oc2c(N)cc3ccccc3c2C1c1ccc(F)cc1 (stereo not drawn) [4a, 3,5-diamino-1-(4-fluorophenyl)-1H-benzo[f]chromene-2-carbonitrile] | 12.3 mm
2 | COc1ccc(N=Nc2cc3c(cc2O)OC(N)=C(C#N)C3c2ccc(F)cc2)cc1 (stereo not drawn) [13b, 2-Amino-4-(4-fluoro-phenyl)-7-hydroxy-6-(4-methoxy-phenylazo)-4H-chromene-3-carbonitrile] | 16.3 mm

What follows are compounds tested on Bacillus subtilis (RCMB 010067) (assay: Well diffusion assay (inhibition zone)). Settings: RCMB010067, 5 mg/mL in DMSO, Gm+ve, read-out: Inhibition Zone (IZ) diameter, B.S.
Assay type: cell-based
In short: as §1

Row | Structure (SMILES) | zone of inhibition at 5000 µg/mL
3 | N#CC1=C(N)Oc2c(N)cc3ccccc3c2C1c1ccc(F)cc1 (stereo not drawn) [4a, 3,5-diamino-1-(4-fluorophenyl)-1H-benzo[f]chromene-2-carbonitrile] | 18.2 mm
4 | COc1ccc(N=Nc2cc3c(cc2O)OC(N)=C(C#N)C3c2ccc(F)cc2)cc1 (stereo not drawn) [13b, 2-Amino-4-(4-fluoro-phenyl)-7-hydroxy-6-(4-methoxy-phenylazo)-4H-chromene-3-carbonitrile] | 19.7 mm

The compounds below were run on Escherichia coli (RCMB 010052) (assay: Well diffusion assay (inhibition zone)). Settings: RCMB010052, 5 mg/mL in DMSO, Gm-ve, read-out: Inhibition Zone (IZ) diameter, E.C.
Assay type: cell-based
In short: as §1

Row | Structure (SMILES) | zone of inhibition at 5000 µg/mL
5 | N#CC1=C(N)Oc2c(N)cc3ccccc3c2C1c1ccc(F)cc1 (stereo not drawn) [4a, 3,5-diamino-1-(4-fluorophenyl)-1H-benzo[f]chromene-2-carbonitrile] | 11.9 mm
6 | COc1ccc(N=Nc2cc3c(cc2O)OC(N)=C(C#N)C3c2ccc(F)cc2)cc1 (stereo not drawn) [13b, 2-Amino-4-(4-fluoro-phenyl)-7-hydroxy-6-(4-methoxy-phenylazo)-4H-chromene-3-carbonitrile] | 17.8 mm

These compounds were tested on Geotricum candidum (RCMB 05097) (assay: Well diffusion assay (inhibition zone)). Settings: 5 mg/mL in DMSO; fungi; read-out: Inhibition Zone (IZ) diameter, G.C.
Assay type: cell-based
In short: as §1

Row | Structure (SMILES) | zone of inhibition at 5000 µg/mL
7 | COc1ccc(N=Nc2cc3c(cc2O)OC(N)=C(C#N)C3c2ccc(F)cc2)cc1 (stereo not drawn) [13b, 2-Amino-4-(4-fluoro-phenyl)-7-hydroxy-6-(4-methoxy-phenylazo)-4H-chromene-3-carbonitrile] | 17.3 mm

The compounds below were run on Streptococcus pneumoniae (RCMB 010010) (assay: Well diffusion assay (inhibition zone)). Settings: RCMB010010, 5 mg/mL in DMSO, Gm+ve, read-out: Inhibition Zone (IZ) diameter, S.P.
Assay type: cell-based
In short: as §1

Row | Structure (SMILES) | zone of inhibition at 5000 µg/mL
8 | N#CC1=C(N)Oc2c(N)cc3ccccc3c2C1c1ccc(F)cc1 (stereo not drawn) [4a, 3,5-diamino-1-(4-fluorophenyl)-1H-benzo[f]chromene-2-carbonitrile] | 16.9 mm
9 | COc1ccc(N=Nc2cc3c(cc2O)OC(N)=C(C#N)C3c2ccc(F)cc2)cc1 (stereo not drawn) [13b, 2-Amino-4-(4-fluoro-phenyl)-7-hydroxy-6-(4-methoxy-phenylazo)-4H-chromene-3-carbonitrile] | 17.5 mm

What follows are compounds tested on Syncephalastrum racemosum (RCMB 05922) (assay: Well diffusion assay (inhibition zone)). Settings: RCMB05922, 5 mg/mL in DMSO, fungi, read-out: Inhibition Zone (IZ) diameter, S.R.
Assay type: cell-based
In short: as §1

Row | Structure (SMILES) | zone of inhibition at 5000 µg/mL
10 | N#CC1=C(N)Oc2c(N)cc3ccccc3c2C1c1ccc(F)cc1 (stereo not drawn) [4a, 3,5-diamino-1-(4-fluorophenyl)-1H-benzo[f]chromene-2-carbonitrile] | 12.6 mm
11 | COc1ccc(N=Nc2cc3c(cc2O)OC(N)=C(C#N)C3c2ccc(F)cc2)cc1 (stereo not drawn) [13b, 2-Amino-4-(4-fluoro-phenyl)-7-hydroxy-6-(4-methoxy-phenylazo)-4H-chromene-3-carbonitrile] | 15.2 mm

Each compound was assayed on Escherichia coli (RCMB 010052) (assay: MIC by serial dilution method). Settings: RCMB010052, Gm-ve, read-out: Minimum inhibitory concentration, MIC, E.C.
Assay type: cell-based
Experimental: (§2) All the newly synthesized compounds described in this report were screened for both antibacterial and antifungal activity via the reported agar diffusion well method (Vanden Berghe and Vlietinck, 1991[62]). The inhibition zones and minimum inhibitory concentrations (MIC) were determined by the serial dilution method (Cappuccino and Sherman, 1999[12]). The antimicrobial activity of the synthesized compounds was tested against a broad panel of microorganisms including two Gram-positive bacteria: Streptococcus pneumoniae (RCMB 010010) and Bacillus subtilis (RCMB 010067), two Gram-negative bacteria: Pseudomonas aeruginosa (RCMB 010043) and Escherichia coli (RCMB 010052), and four fungi: Aspergillus fumigatus (RCMB 02568), Syncephalastrum racemosum (RCMB 05922), Geotricum candidum (RCMB 05097), and Candida albicans (RCMB 05036). Ampicillin, ciprofloxacin, gentamicin and amphotericin B were used as positive control drugs (Atta-ur-Rahman and Thomsen, 2001[7]; Smania et al., 1999[57]). […] While in the case of Gm-ve bacteria, they had weak activity. In addition, certain strains of fungi were sensitive to tested compounds with an IZ range from 12-25 except Candida albicans.

Row | Structure (SMILES) | MIC
12 | N#CC1=C(N)Oc2c(N)cc3ccccc3c2C1c1ccc(F)cc1 (stereo not drawn) [4a, 3,5-diamino-1-(4-fluorophenyl)-1H-benzo[f]chromene-2-carbonitrile] | 7.81 µg/mL (≈ 23.6 µM)
13 | COc1ccc(N=Nc2cc3c(cc2O)OC(N)=C(C#N)C3c2ccc(F)cc2)cc1 (stereo not drawn) [13b, 2-Amino-4-(4-fluoro-phenyl)-7-hydroxy-6-(4-methoxy-phenylazo)-4H-chromene-3-carbonitrile] | 15.6 µg/mL (≈ 37.5 µM)

Each compound was assayed on Geotricum candidum (RCMB 05097) (assay: MIC by serial dilution method). Settings: fungi; read-out: Minimum inhibitory concentration, MIC, G.C.
Assay type: cell-based
Experimental: as §2

Row | Structure (SMILES) | MIC
14 | COc1ccc(N=Nc2cc3c(cc2O)OC(N)=C(C#N)C3c2ccc(F)cc2)cc1 (stereo not drawn) [13b, 2-Amino-4-(4-fluoro-phenyl)-7-hydroxy-6-(4-methoxy-phenylazo)-4H-chromene-3-carbonitrile] | 31.2 µg/mL (≈ 74.9 µM)

What follows are compounds tested on Syncephalastrum racemosum (RCMB 05922) (assay: MIC by serial dilution method). Settings: RCMB05922, fungi, read-out: Minimum inhibitory concentration, MIC, S.R.
Assay type: cell-based
Experimental: as §2

Row | Structure (SMILES) | MIC
15 | N#CC1=C(N)Oc2c(N)cc3ccccc3c2C1c1ccc(F)cc1 (stereo not drawn) [4a, 3,5-diamino-1-(4-fluorophenyl)-1H-benzo[f]chromene-2-carbonitrile] | 7.81 µg/mL (≈ 23.6 µM)
16 | COc1ccc(N=Nc2cc3c(cc2O)OC(N)=C(C#N)C3c2ccc(F)cc2)cc1 (stereo not drawn) [13b, 2-Amino-4-(4-fluoro-phenyl)-7-hydroxy-6-(4-methoxy-phenylazo)-4H-chromene-3-carbonitrile] | 62.5 µg/mL (≈ 150 µM)

These compounds were tested on Human colon carcinoma (HCT-116) (assay: Cytotoxic screening). Settings: Homo sapiens, HCT-116; read-out: IC50 HCT-116.
Assay type: cell-based
In short: (§3)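 Read-out is crystal violet staining (the text also names MTT), lysis in 33 % acetic acid, A590, with untreated cells as 100 %. IC50 was estimated graphically from survival curves.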

Row | Structure (SMILES) | IC50
17 | N#CC1=C(N)Oc2c(N)cc3ccccc3c2C1c1ccc(F)cc1 (stereo not drawn) [4a, 3,5-diamino-1-(4-fluorophenyl)-1H-benzo[f]chromene-2-carbonitrile] | 1 µg/mL (≈ 3.02 µM)
18 | COc1ccc(N=Nc2cc3c(cc2O)OC(N)=C(C#N)C3c2ccc(F)cc2)cc1 (stereo not drawn) [13b, 2-Amino-4-(4-fluoro-phenyl)-7-hydroxy-6-(4-methoxy-phenylazo)-4H-chromene-3-carbonitrile] | 2.41 µg/mL (≈ 5.79 µM)

These compounds were tested on human breast adenocarcinoma (MCF-7) (assay: Cytotoxic screening). Settings: Homo sapiens, MCF7; read-out: IC50 MCF-7.
Assay type: cell-based
In short: as §3

Row | Structure (SMILES) | IC50
19 | N#CC1=C(N)Oc2c(N)cc3ccccc3c2C1c1ccc(F)cc1 (stereo not drawn) [4a, 3,5-diamino-1-(4-fluorophenyl)-1H-benzo[f]chromene-2-carbonitrile] | 1 µg/mL (≈ 3.02 µM)
20 | COc1ccc(N=Nc2cc3c(cc2O)OC(N)=C(C#N)C3c2ccc(F)cc2)cc1 (stereo not drawn) [13b, 2-Amino-4-(4-fluoro-phenyl)-7-hydroxy-6-(4-methoxy-phenylazo)-4H-chromene-3-carbonitrile] | 3.78 µg/mL (≈ 9.08 µM)

The compounds below were run on human hepatocellular carcinoma (HEPG-2) (assay: Cytotoxic screening). Settings: HepG2, read-out: IC50 HepG-2.
Assay type: cell-based
In short: as §3

Row | Structure (SMILES) | IC50
21 | N#CC1=C(N)Oc2c(N)cc3ccccc3c2C1c1ccc(F)cc1 (stereo not drawn) [4a, 3,5-diamino-1-(4-fluorophenyl)-1H-benzo[f]chromene-2-carbonitrile] | 0.3 µg/mL (≈ 0.905 µM)
22 | COc1ccc(N=Nc2cc3c(cc2O)OC(N)=C(C#N)C3c2ccc(F)cc2)cc1 (stereo not drawn) [13b, 2-Amino-4-(4-fluoro-phenyl)-7-hydroxy-6-(4-methoxy-phenylazo)-4H-chromene-3-carbonitrile] | 5.4 µg/mL (≈ 13 µM)

Each compound was assayed on HCT-116, MCF-7, HEPG-2 (assay: Cytotoxic screening, statements over the three cell lines). Settings: Homo sapiens; HCT-116, MCF-7, HEPG-2 together; read-out: IC50, range over the three cell lines.
Assay type: cell-based
Experimental: Human colon carcinoma (HCT-116), human hepatocellular carcinoma (HEPG-2), adenocarcinomic human alveolar basal epithelial cell (A-549), and human breast adenocarcinoma (MCF-7) cell lines were obtained from the American Type Culture Collection (ATCC, Rockville, MD). The cells were grown on RPMI-1640 medium supplemented with 10 % inactivated fetal calf serum and 50 µg/ml gentamycin. The cells were maintained at 37 °C in a humidified atmosphere with 5 % CO2 and were subcultured two to three times a week. Potential cytotoxicity of the compounds was evaluated on tumor cells using the method of Gangadevi and Muthumary (2007[21]) (Klancnik et al., 2010[36]). The cells were grown as monolayers in growth RPMI-1640. The monolayers of 104 cells adhered at the bottom of the wells in a 96-well microtiter plate incubated for 24 h at 37 °C in a humidified incubator with 5 % CO2. The monolayers were then washed with sterile phosphate buffered saline (0.01 M pH 7.2) and simultaneously the cells were treated with 100 µL from different dilutions of tested sample in fresh maintenance medium and incubated at 37 °C. A control of untreated cells was made in the absence of tested sample. Positive controls containing doxorubicin were also tested as a reference drug for comparison. Six wells were used for each concentration of the test sample. Every 24 hours an observation under the inverted microscope was made. The number of the surviving cells was determined by staining the cells with crystal violet (Mosmann, 1983[42]; Gangadevi and Muthumary, 2007[21]) followed by cell lysing using 33 % glacial acetic acid and reading the absorbance at 590 nm using microplate reader (SunRise, TECAN, Inc, USA) after well mixing. The absorbance values from untreated cells were considered as 100 % proliferation. The number of viable cells was determined using microplate reader as previously mentioned before and the percentage of […] was calculated as [1-(ODt/ODc)] x 100 % where ODt is the mean optical density of wells treated with the tested sample and ODc is the mean optical density of untreated cells. The relation between surviving cells and drug concentration was plotted to get the survival curve of each tumor cell line after treatment with the specified compound. The 50 % inhibitory concentration (IC50), the concentration required to cause toxic effects in 50 % of intact cells, was estimated from graphic plots.
The in vitro cytotoxic activity was performed by MTT assay (Mosmann, 1983[42]; Alley et al., 1988[6]) against three human carcinoma cell lines: Human colon carcinoma (HCT-116), human breast adenocarcinoma (MCF-7), and human hepatocellular carcinoma (HEPG-2).

Row | Structure (SMILES) | IC50
23 | N#CC1=C(N)Oc2c(N)cc3ccccc3c2C1c1ccc(F)cc1 (stereo not drawn) [4a, 3,5-diamino-1-(4-fluorophenyl)-1H-benzo[f]chromene-2-carbonitrile] | 0.3 to 2 µg/mL (≈ 0.905 to 6.04 µM)
24 | COc1ccc(N=Nc2cc3c(cc2O)OC(N)=C(C#N)C3c2ccc(F)cc2)cc1 (stereo not drawn) [13b, 2-Amino-4-(4-fluoro-phenyl)-7-hydroxy-6-(4-methoxy-phenylazo)-4H-chromene-3-carbonitrile] | 2.41 to 5.4 µg/mL (≈ 5.79 to 13 µM)

Reference: publication PMC5547389, “Structure-activity relationships and molecular docking studies of chromene and chromene based azo chromophores: A novel series of potent antimicrobial and anticancer agents” (EXCLI Journal, 2017)
